Test results from patent US11198741B2, “Medicines for topic use based on sulfated hyaluronic acid as activating or inhibiting agent of the cytokine activity” (Fidia Farmaceutici S.p.A., priority 2009, dated 2021).

What was measured:
[1] = assay type: in vitro ADME
Protocol: The skin used for effecting the experiments is obtained from the abdomen of patients between 30 and 50 years old, subjected to surgical abdominal reductions. The sections of skin with a complete thickness are frozen after the surgical intervention and preserved at −20° C. until the moment of the experiment, in which the samples are defrozen at room temperature and accurately separated from the adipose tissue. The skin is divided into square sections of 2.5 cm^2, immersed for a minute in water at a temperature of 60° C. and with the help of specific tweezers, the corneal layer and epidermis (SCE) are accurately separated from the underlying tissues. The samples obtained are analyzed with an optical microscope and discarded if punctures are found. The SCE is assembled in the lower part of a Franz cell with the epidermis facing downwards and the corneal layer in contact with the donor solution which is situated above. The permeation area is a circular surface of 0.636 cm^2. […] Each experiment is effected triply and the result is intended as the average of the 3, expressed as quantity of analyte which has crossed the surface unit of skin after 24 hours. […] The concentration of diclofenac was determined through reverse-phase HPLC analysis on an apparatus Agilent 1200 Series and UV detection (254 nm), C18 column, eluent acetonitrile/water/acetic acid 50/46/4 with a flow of 1.2 ml/min.

[2] = Hydrating and protective activity of creams on the forearm (corneometer, Visioscan); assay type: in vivo; conditions: human subjects
Protocol: 20 human subjects aged between 18 and 70 years, with no skin pathologies and pharmacological treatment underway, were treated daily with certain and constant quantities of the products tested, at the level of the forearm. The experimental products were: control: consisting of a hydrating base cream base cream (as control) containing HA 200 KD 01% base cream (as control) containing HAS3 01%, prepared according to Example 1-2 […]

IL-6 receptor = molecular target: T1, IL-6 receptor (Homo sapiens, UniProt P08887); assay: Inhibition of the binding of 125I-IL-6 to its receptor in U266 myeloma cells (Radioligand Binding); conditions: 125I-IL-6 0.08 nM, sample 1 mg/ml, 4° C. 16 hours, both medium and low MW
T1 construct: the line of human myeloma U266 was used, sensitive to the cytotoxic activity of IL-6, expressing its relative receptor; endogenous in cells; host or cells: U266 human myeloma (whole cells)
T1 sequence (P08887 20-468): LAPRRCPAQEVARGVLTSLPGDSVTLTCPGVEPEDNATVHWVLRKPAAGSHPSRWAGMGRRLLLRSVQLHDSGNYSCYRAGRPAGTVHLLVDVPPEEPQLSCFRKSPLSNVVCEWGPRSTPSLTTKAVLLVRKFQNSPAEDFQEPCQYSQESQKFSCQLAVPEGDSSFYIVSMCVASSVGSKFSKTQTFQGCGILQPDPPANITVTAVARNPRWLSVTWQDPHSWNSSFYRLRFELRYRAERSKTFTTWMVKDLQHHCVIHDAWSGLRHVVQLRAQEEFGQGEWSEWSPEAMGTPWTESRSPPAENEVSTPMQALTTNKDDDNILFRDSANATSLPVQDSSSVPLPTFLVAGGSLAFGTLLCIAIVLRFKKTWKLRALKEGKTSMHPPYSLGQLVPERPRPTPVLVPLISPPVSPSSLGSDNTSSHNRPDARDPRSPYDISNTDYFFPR
From the text: These experiments were effected to evaluate the effectiveness of the samples tested (prepared according to Examples 1-3 and 4) on the capacity of inhibiting the binding of IL-6 to its receptor expressed in human myeloma U266, normally used in vitro for this type of experiment, carried out with iodinated cytokine components for an evaluation in Radioligand Binding assays. The experimental procedure was effected as described in Taga T. et al., J Exp Med, 1987, 166:967-981. In short, the line of human myeloma U266 was used, sensitive to the cytotoxic activity of IL-6, expressing its relative receptor. […] At the end of the incubation, the cells were washed with phosphate buffer, centrifuged at 9,000 rpm and the pellet counted in a γ-counter.

**Q.** What does the source list for “sulfated hyaluronic acid degree 3 [HAS3]”?
**A.** total permeate quantity of diclofenac in 24 h [1]: doubling; skin roughness index ([2]; after 7 days of treatment, base cream containing HAS3 01%, with respect to the controls): significantly diminished; hydrating effect of the skin (corneometer) ([2]; daily, T7 vs T0, base cream containing HAS3 01%, vs base cream and cream containing HA): greater hydrating effect; inhibition of the binding of IL-6 to its receptor (IL-6 receptor): 100%
